Data from patent EP0507188A1, “Substituted 2',3'-dideoxy-5-trifluoromethyluridines, method of their preparation and their use in medicaments” (BAYER AG, priority 1991, dated 1992).
Read-outs that look alike come from different tables or passages of the source.

Key:
[1] = tested on: Hepatitis B Virus (HBV); experiment: HBV test system in HBV-DNA-transfected hepatoma cells (HEP G2.2.15): HBV DNA in supernatant, HBsAg ELISA; assay type: cell-based; details: read-out: IC₅₀
From the text: Es wurde überraschend gefunden, daß die erfindungsgemäßen Verbindungen der allgemeinen Formel (I) eine außerordentlich starke spezifische Wirkung gegen das Heptatitis B Virus (HBV) besitzen. Der Nachweis wurde in mit Hepatitis B Virus DNA transfizierten Hepatomzellen (HEP G2.2.15) geführt.
Die Ergebnisse der unten aufgeführten Beispiele wurden zu dem in der folgenden Literaturangabe [Sells, M.A.; Chen, M.L., Acs, G., Proc. Natl. Acad. Sci. USA S. 1005 - 1009, Vol. 84 (1987)] beschriebenen HBV Testsystem ermittelt: Transfizierte Hepatomzellen (HEP G2.2.15) wurden mit verschiedenen Konzentrationen an der jeweiligen Verbindung inkubiert. Durch Behandlung der transfizierten Hepatomzellinie HEP G2.2.15 mit den erfindungsgemäßen Verbindungen konnte das […] der virusspezifischen HBV DNA im Überstand sowie eine Reduktion des HBsAg Spiegels gezeigt werden. Es wurde weiter gefunden, daß die erfindungsgemäßen Verbindungen zu einer Reduktion der replikativen Intermediate der Hepatitisviren führen. Im Überstand der Zellkulturen wurde nach PEG Fällung der Gehalt an HBV DNA bestimmt. Dies geschah unter Verwendung einer nicht radioaktiv markierten HBV genomischen DNA Probe [Pauly, P., 1982, P.H.D. Thesis, University of Göttingen, F.R.G.; Köchel et al., 1990, EMBL, Accession-Nr. X 51790]. Gleichzeitig erfolgte der Nachweis der Beeinflussung der HBsAg Bildung mittels eines kommerziell erhältlichen Elisa Tests. Die angegebenen IC₅₀-Werte beziehen sich auf die Substratkonzentrationen, die unter den oben aufgeführten Testbedingungen eine 50%ige Hemmung der HBV DNA Konzentration im Überstand bewirken.

[2] = tested on: HEL-Zellen; experiment: Effect on vitality of other cells by incubation (HEL); assay type: cell-based; details: no influence on vitality up to this concentration
Description: (§1) Die Wirkung des Beispiels 2 auf andere Zellen wurde durch Inkubation von HEL-, MEF-Zellen getestet. Es zeigte sich keine Beeinflussung der Vitalität dieser Zellen bis zu einer Konzentration von 250 µM.

[3] = tested on: MEF-Zellen; experiment: Effect on vitality of other cells by incubation (MEF); assay type: cell-based; details: no influence on vitality up to this concentration
Description: as §1

[4] = Water solubility (qualitative remark on the lyophilisate); assay type: physicochemical; details: lyophilisate of the sodium salt
[5] = HEP G2.2.15 cells, concentration giving 50% inhibition of HBV DNA concentration in supernatant

With `O=c1[nH]c(=O)n([C@H]2CC[C@@H](CO)O2)cc1C(F)(F)F` [Beispiel 2, β-2',3'-Didesoxy-5-(trifluormethyl)-uridin] the IC50 [1, 5] was 0.01 nM, the “Beeinflussung der Vitalität dieser Zellen” value [2] was greater than 250 µM and the “Beeinflussung der Vitalität dieser Zellen” value [3] was greater than 250 µM.

With `O=c1[nH]c(=O)n([C@H]2CC[C@@H](CO)O2)cc1C(F)(F)F.[Na]` [Beispiel 12, β-2',3'-Didesoxy-5-(trifluormethyl)-uridin-natriumsalz] the Wasserlöslichkeit [4] was “gut wasserlösliches”.

For `Nc1ncnc2c1ncn2[C@H]1CC[C@@H](CO)O1` [DDA, reference compound], the IC50 ([1]; reference substances in the same test system (HEP G2.2.15, HBV DNA in supernatant)) was greater than 100000 nM.

In the case of `Nc1ccn([C@H]2CC[C@@H](CO)O2)c(=O)n1` [DDC, 2',3'-Didesoxy-cytidin, reference compound], the IC50 ([1]; Hepatitis B virus, HepG2.2.15, reference substances in the same test system (HEP G2.2.15, HBV DNA in supernatant)) is reported as 5000 nM.

Compound “β-5'-(1-Ethoxycarbonyloxy-eth-1-yl)-2',3'-didesoxy-5-(trifluormethyl)-uridin [Beispiel 5]” has an IC50 [1, 5] greater than 0.25 nM.
